From patent US20260022143A1, “Cyclic Peptide Inhibitors of IL-23” (JANSSEN PHARMACEUTICA NV, priority 2022, published 2026)
Counter-ions that a name gives are not always drawn. Starred links: 1 amine or outer side, 2 acyl side, 3 side chain; linkers in the order of their positions; H or OH if unused. Positions of bridges follow the written chain, without caps; N, C: chain ends. Non-standard residues stand in square brackets, D forms with d. Residues, ends and D or L forms follow the SMILES beside them. Groups on a side chain read outwards from the residue. *: point of attachment. X56 = CCCCCCCCCCCC(=O)NCCOCCOCC(=O)NCCOCCOCC(=O)NCC[N+](C)(C)CC(=O)*; X51 = C[N+](C)(C)CCCc1cn(-c2ccc(C[C@H](N[*:1])C(=O)[*:2])cc2)nn1; Me3N+(CH2)2O(CH2)2O(CH2)2CO = C[N+](C)(C)CCOCCOCCC(=O)*; CH2CH2OCH2CH2OCH2CH2NMe3+ = C[N+](C)(C)CCOCCOCC*; Trp(7-Me) = Cc1cccc2c(C[C@H](N)C(=O)O)c[nH]c12; dLys(Me3) = C[N+](C)(C)CCCC[C@@H](N)C(=O)O; Lys(Me3) = C[N+](C)(C)CCCC[C@H](N)C(=O)O; X89 = COCCOCCOCC[N+](C)(CCOCCOCCOC)CC*; 2Nal = N[C@@H](Cc1ccc2ccccc2c1)C(=O)O; AEF = NCCOc1ccc(C[C@H](N)C(=O)O)cc1; dNMeY = CN[C@H](Cc1ccc(O)cc1)C(=O)O; X10 = C[N+](C)(C)C[C@H](CC(=O)O)N*; X82 = C[N+](C)(C)CCOCCOCCOCCOCCN*; 3Pal = N[C@@H](Cc1cccnc1)C(=O)O; Lys(Me) = CNCCCC[C@H](N)C(=O)O; NMeK = CN[C@@H](CCCCN)C(=O)O; Pen = CC(C)(S)[C@H](N)C(=O)O; Suc = O=C(CCC(=O)[*:2])[*:1]; αMeK = C[C@](N)(CCCCN)C(=O)O; Thp = NC1(C(=O)O)CCOCC1; X3 = C[N+](C)(C)CCCCC*; Me2NCH2CH2 = CN(C)CC*; Tfa = O=C(C(F)(F)F)*; Sar = CNCC(=O)O

Assay: Exposed Polar Surface Area (EPSA)
Assay type: physicochemical
Conditions: SFC on Chirex 3014 column; sample 1 mM DMSO stock; read-out: EPSA
How it was run: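 Retention-based polarity: supercritical CO2 with 20 mM ammonium formate in MeOH (5–60%, 20%/min), Chirex 3014 column, 35 °C. Calibrated against 8 standards to give EPSA (Å^2); each sample measured twice.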

| SMILES | EPSA [A^2] |
| --- | --- |
| CC(=O)NCCCC[C@@H]1NC(=O)[C@H](Cc2c[nH]c3c(C)cccc23)NC(=O)[C@H]([C@@H](C)O)NC(=O)[C@H](CC(N)=O)NC(=O)[C@@H](NC(=O)C(F)(F)F)C(C)(C)SSC(C)(C)[C@@H](C(=O)N[C@@H](Cc2ccc(OCCN)cc2)C(=O)N[C@@H](Cc2ccc3ccccc3c2)C(=O)NC2(C(=O)N[C@@H](CCCCNC(C)=O)C(=O)N[C@@H](CC(N)=O)C(=O)N[C@@H](Cc3cccnc3)C(=O)N(C)CC(N)=O)CCOCC2)NC1=O [compound 49] (Tfa-[Pen]NT[Trp(7-Me)]K(Ac)[Pen][AEF][2Nal][Thp]K(Ac)N[3Pal][Sar]-NH2; disulfide 1-6) | 164 |
| CC(=O)NCCCC[C@@H]1NC(=O)[C@H](Cc2c[nH]c3c(C)cccc23)NC(=O)[C@H]([C@@H](C)O)NC(=O)[C@H](CC(N)=O)NC(=O)[C@@H](NC(=O)CCOCCOCC[N+](C)(C)C)C(C)(C)SSC(C)(C)[C@@H](C(=O)N[C@@H](Cc2ccc(-n3cc(CCC[N+](C)(C)C)nn3)cc2)C(=O)N[C@@H](Cc2ccc3ccccc3c2)C(=O)NC2(C(=O)N[C@@H](CCCCNC(C)=O)C(=O)N[C@@H](CC(N)=O)C(=O)N[C@@H](Cc3cccnc3)C(=O)N(C)CC(N)=O)CCOCC2)NC1=O [compound 420, cPEG3aCO-Pen(3)-N-T-7MeW-K(Ac)-Pen(3)-F(4TzlTMA3)-2Nal-THP-K(Ac)-N-3Pya-Sar-CONH2] ({Me3N+(CH2)2O(CH2)2O(CH2)2CO}-[Pen]NT[Trp(7-Me)]K(Ac)[Pen][X51][2Nal][Thp]K(Ac)N[3Pal][Sar]-NH2; disulfide 1-6) | 170 |
| CC(=O)N[C@@H]1C(=O)N[C@@H](CC(=O)N(C)C)C(=O)N[C@@H]([C@@H](C)O)C(=O)N[C@@H](Cc2c[nH]c3c(C)cccc23)C(=O)N[C@@H](CCCC[N+](C)(C)C)C(=O)N[C@H](C(=O)N[C@@H](Cc2ccc(OCCN(C)C)cc2)C(=O)N[C@@H](Cc2ccc3ccccc3c2)C(=O)NC2(C(=O)N[C@@H](CCCC[N+](C)(C)C)C(=O)N[C@@H](CC(N)=O)C(=O)N[C@@H](Cc3cccnc3)C(=O)N(C)CC(=O)N(C)C)CCOCC2)C(C)(C)SSC1(C)C [compound 117, MeCO-Pen(3)-N(N(Me)2)-T-7MeW-K(Me)3-Pen(3)-AEF(N(Me)2)-2Nal-THP-K(Me)3-N-3Pya-Sar-CON(Me)2] (Ac-[Pen]D(NMe2)T[Trp(7-Me)][Lys(Me3)][Pen]Y(Me2NCH2CH2)[2Nal][Thp][Lys(Me3)]N[3Pal][Sar]-NMe2; disulfide 1-6) | 139 |
| CC(=O)NCCCC[C@@H]1NC(=O)[C@H](Cc2c[nH]c3c(C)cccc23)NC(=O)[C@H]([C@@H](C)O)NC(=O)[C@H](CC(N)=O)NC(=O)[C@@H](NC(C)=O)C(C)(C)SSC(C)(C)[C@@H](C(=O)N[C@@H](Cc2ccc(OCCN)cc2)C(=O)N[C@@H](Cc2ccc3ccccc3c2)C(=O)NC2(C(=O)N[C@@H](CCCCNC(C)=O)C(=O)N[C@@H](CC(N)=O)C(=O)N[C@@H](Cc3cccnc3)C(=O)N(C)CC(=O)NCCOCCOCCOCCOCC[N+](C)(C)C)CCOCC2)NC1=O [compound 155] (Ac-[Pen]NT[Trp(7-Me)]K(Ac)[Pen][AEF][2Nal][Thp]K(Ac)N[3Pal][Sar]-X82; disulfide 1-6 (inferred)) | 150 |
| CC(=O)NCCCC[C@@H]1NC(=O)[C@H](Cc2c[nH]c3c(C)cccc23)NC(=O)[C@H]([C@@H](C)O)NC(=O)[C@H](CC(N)=O)NC(=O)[C@@H](NC(C)=O)C(C)(C)SSC(C)(C)[C@@H](C(=O)N[C@@H](Cc2ccc(OCCN)cc2)C(=O)N[C@@H](Cc2ccc3ccccc3c2)C(=O)N[C@@](C)(CCCCN)C(=O)N[C@H](CCCCNC(C)=O)C(=O)N[C@@H](CC(N)=O)C(=O)N[C@H](CCCCN)C(=O)N(C)[C@H](Cc2ccc(O)cc2)C(N)=O)NC1=O [compound 5, MeCO-Pen(3)-N-T-7MeW-K(Ac)-Pen(3)-AEF-2Nal-aMeK-k(Ac)-N-dK-NMeDTyr-CONH2] (Ac-[Pen]NT[Trp(7-Me)]K(Ac)[Pen][AEF][2Nal][αMeK][dK](Ac)N[dK][dNMeY]-NH2; disulfide 1-6) | 168 |
| CC(=O)NCCCC[C@@H]1NC(=O)[C@H](Cc2c[nH]c3c(C)cccc23)NC(=O)[C@H]([C@@H](C)O)NC(=O)[C@H](CC(N)=O)NC(=O)[C@@H](NC(=O)[C@@H](CCCC[N+](C)(C)C)NC(C)=O)C(C)(C)SSC(C)(C)[C@@H](C(=O)N[C@@H](Cc2ccc(OCCCCC[N+](C)(C)C)cc2)C(=O)N[C@@H](Cc2ccc3ccccc3c2)C(=O)NC2(C(=O)N[C@@H](CCCCNC(C)=O)C(=O)N[C@@H](CC(N)=O)C(=O)N[C@@H](Cc3cccnc3)C(=O)N(C)CC(N)=O)CCOCC2)NC1=O [compound 450, MeCO-k(Me)3-Pen(3)-N-T-7MeW-K(Ac)-Pen(3)-TMAPF-2Nal-THP-K(Ac)-N-3Pya-Sar-CONH2] (Ac-[dLys(Me3)][Pen]NT[Trp(7-Me)]K(Ac)[Pen]Y(X3)[2Nal][Thp]K(Ac)N[3Pal][Sar]-NH2; disulfide 2-7) | 165 |
| CC(=O)NCCCC[C@@H]1NC(=O)[C@H](Cc2c[nH]c3c(C)cccc23)NC(=O)[C@H]([C@@H](C)O)NC(=O)[C@H](CC(N)=O)NC(=O)[C@@H](NC(C)=O)C(C)(C)SSC(C)(C)[C@@H](C(=O)N[C@@H](Cc2ccc(OCCN)cc2)C(=O)N[C@@H](Cc2ccc3ccccc3c2)C(=O)NC2(C(=O)N[C@@H](CCCCNC(=O)CCC(=O)N[C@@H](CC(=O)O)C[N+](C)(C)C)C(=O)N[C@@H](CC(N)=O)C(=O)N[C@@H](Cc3cccnc3)C(=O)N(C)CC(N)=O)CCOCC2)NC1=O [compound 110] (Ac-[Pen]NT[Trp(7-Me)]K(Ac)[Pen][AEF][2Nal][Thp]K([Suc-X10])N[3Pal][Sar]-NH2; disulfide 1-6) | 171 |
| COCCOCCOCC[N+](C)(CCOCCOCCOC)CCOc1ccc(C[C@H](NC(=O)[C@H]2NC(=O)[C@H](CCCCN(C)C(C)=O)NC(=O)[C@H](Cc3c[nH]c4c(C)cccc34)NC(=O)[C@H]([C@@H](C)O)NC(=O)[C@H](CC(=O)N(C)C)NC(=O)[C@@H](NC(=O)CCOCCOCC[N+](C)(C)C)C(C)(C)SSC2(C)C)C(=O)N[C@@H](Cc2ccc3ccccc3c2)C(=O)NC2(C(=O)N[C@@H](CCCCN(C)C(C)=O)C(=O)N[C@@H](CC(N)=O)C(=O)N[C@@H](Cc3cccnc3)C(=O)N(C)CC(=O)N(C)C)CCOCC2)cc1 [compound 241, cPEG3aCO-Pen(3)-N(N(Me)2)-T-7MeW-K(NMeAc)-Pen(3)-AEF(NMeBismPEG3)-2Nal-THP-K(NMeAc)-N-3Pya-Sar-CON(Me)2] ({Me3N+(CH2)2O(CH2)2O(CH2)2CO}-[Pen]D(NMe2)T[Trp(7-Me)][Lys(Me)](Ac)[Pen]Y(X89)[2Nal][Thp][Lys(Me)](Ac)N[3Pal][Sar]-NMe2; disulfide 1-6) | 135 |
| CC(=O)N(C)CCCC[C@H](NC(=O)C1(NC(=O)[C@H](Cc2ccc3ccccc3c2)NC(=O)[C@H](Cc2ccc(OCCCCC[N+](C)(C)C)cc2)NC(=O)[C@H]2NC(=O)[C@H](COCCOCC[N+](C)(C)C)NC(=O)[C@H](Cc3c[nH]c4c(C)cccc34)NC(=O)[C@H]([C@@H](C)O)NC(=O)[C@H](CC(=O)N(C)C)NC(=O)[C@@H](NC(=O)CCOCCOCC[N+](C)(C)C)C(C)(C)SSC2(C)C)CCOCC1)C(=O)N[C@@H](CC(N)=O)C(=O)N[C@@H](Cc1cccnc1)C(=O)N(C)CC(=O)N(C)C (relative stereo) [compound 247, cPEG3aCO-Pen(3)-N(N(Me)2)-T-7MeW-APEG2Ser(S*)-Pen(3)-TMAPF-2Nal-THP-K(NMeAc)-N-3Pya-Sar-CON(Me)2] | 145 |
| CC(=O)N(C)CCCC[C@@H]1NC(=O)[C@H](Cc2c[nH]c3c(C)cccc23)NC(=O)[C@H]([C@@H](C)O)NC(=O)[C@H](CCCCNC(=O)CCOCCOCC[N+](C)(C)C)NC(=O)[C@@H](NC(=O)CCOCCOCC[N+](C)(C)C)C(C)(C)SSC(C)(C)[C@@H](C(=O)N[C@@H](Cc2ccc(OCCCCC[N+](C)(C)C)cc2)C(=O)N[C@@H](Cc2ccc3ccccc3c2)C(=O)NC2(C(=O)N[C@@H](CCCCN(C)C(C)=O)C(=O)N[C@@H](CC(N)=O)C(=O)N[C@@H](Cc3cccnc3)C(=O)N(C)CC(=O)N(C)C)CCOCC2)NC1=O [compound 393, cPEG3aCO-Pen(3)-K(cPEG3a)-T-7MeW-K(NMeAc)-Pen(3)-TMAPF-2Nal-THP-K(NMeAc)-N-3Pya-Sar-CON(Me)2] ({Me3N+(CH2)2O(CH2)2O(CH2)2CO}-[Pen]K(Me3N+(CH2)2O(CH2)2O(CH2)2CO)T[Trp(7-Me)][Lys(Me)](Ac)[Pen]Y(X3)[2Nal][Thp][Lys(Me)](Ac)N[3Pal][Sar]-NMe2; disulfide 1-6) | 144 |
| CCCCCCCCCCCC(=O)NCCOCCOCC(=O)NCCOCCOCC(=O)NCC[N+](C)(C)CC(=O)NCCCC[C@@H](C(N)=O)N(C)C(=O)[C@H](Cc1cccnc1)NC(=O)[C@H](CC(N)=O)NC(=O)[C@H](CCCCN(C)C(C)=O)NC(=O)C1(NC(=O)[C@H](Cc2ccc3ccccc3c2)NC(=O)[C@H](Cc2ccc(OCCCCC[N+](C)(C)C)cc2)NC(=O)[C@H]2NC(=O)[C@H](CCCCNC(C)=O)NC(=O)[C@H](Cc3c[nH]c4c(C)cccc34)NC(=O)[C@H]([C@@H](C)O)NC(=O)[C@H](CC(=O)N(C)C)NC(=O)[C@@H](NC(=O)CCOCCOCC[N+](C)(C)C)C(C)(C)SSC2(C)C)CCOCC1 [compound 407, cPEG3aCO-Pen(3)-N(N(Me)2)-T-7MeW-K(Ac)-Pen(3)-TMAPF-2Nal-THP-K(NMeac)-N-3Pya-NMeK(SP6PEG2PEG2C12)-CONH2] ({Me3N+(CH2)2O(CH2)2O(CH2)2CO}-[Pen]D(NMe2)T[Trp(7-Me)]K(Ac)[Pen]Y(X3)[2Nal][Thp][Lys(Me)](Ac)N[3Pal][NMeK](X56)-NH2; disulfide 1-6) | 151 |
| CC(=O)N(C)CCCC[C@H](NC(=O)[C@H](Cc1c[nH]c2ccccc12)NC(=O)[C@H](Cc1ccc2ccccc2c1)NC(=O)[C@H](Cc1ccc(OCCOCCOCC[N+](C)(C)C)cc1)NC(=O)[C@H]1NC(=O)[C@H](Cc2c[nH]c3ccccc23)NC(=O)[C@H](Cc2c[nH]c3c(C)cccc23)NC(=O)[C@H]([C@@H](C)O)NC(=O)[C@H](Cc2c[nH]c3ccccc23)NC(=O)[C@@H](NC(=O)CCOCCOCC[N+](C)(C)C)C(C)(C)SSC1(C)C)C(=O)N[C@@H](CC(N)=O)C(=O)N[C@@H](Cc1cccnc1)C(=O)N(C)CC(=O)N(C)C [compound 465, cPEG3aCO-Pen(3)-W-T-7MeW-W-Pen(3)-APEG3f-2Nal-W-K(NMeAc)-N-3Pya-Sar-CON(Me)2] ({Me3N+(CH2)2O(CH2)2O(CH2)2CO}-[Pen]WT[Trp(7-Me)]W[Pen]Y(CH2CH2OCH2CH2OCH2CH2NMe3+)[2Nal]W[Lys(Me)](Ac)N[3Pal][Sar]-NMe2; disulfide 1-6) | 176 |
